For data set [1], the system named is CaCo-2 (human colorectal adenocarcinoma). The experiment in a line: MTT assay, antiproliferative activity against CaCo-2. Type of data set: cell-based. To be noted: for antiproliferative activity against CaCo-2 (in words): 72 h, up to 100 µM; for antiproliferative activity against CaCo-2 (in words) / IC50: MTT; for IC50: Homo sapiens, Caco-2, 72 h of exposure, mean ± SD; for SI CaCo-2: ratio IC50 NIH/3T3 / IC50 CaCo-2. An excerpt:
(§1) The CLB70 cell line (canine chronic B-cell lymphocytic leukemia) was established at the Department of Pharmacology and Toxicology, Wrocław University of Environmental and Life Sciences. The CLBL-1 cell line (canine B-cell lymphoma) was kindly provided by Dr. Barbara C. Rütgen from the Institute of Immunology, Department of Pathobiology, University of Veterinary Medicine, Vienna. The T-24 (human bladder carcinoma), Caco-2 (human colorectal adenocarcinoma), and NIH/3T3 (mouse embryonic fibroblasts) cell lines were purchased from the American Type Culture Collection (ATCC, Rockville, MD, USA).
(§2) Cell cultures were maintained in their respective growth media, with fetal bovine serum (FBS) concentrations ranging from 10% to 20%, depending on the cell line. Penicillin-streptomycin (PS) and L-glutamine (L-Glu) were consistently added at 1% each to all media. CLB70 cells were cultured in RPMI ADVANCE medium supplemented with 20% FBS, while CLBL-1 cells were maintained in RPMI-1640 medium with 20% FBS. T-24 cells were cultured in McCoy′s 5A medium with 10% FBS, and Caco-2 cells in Eagle′s Minimum Essential Medium (EMEM) with 20% FBS. NIH/3T3 cells were maintained in high-glucose DMEM (DMEM HG) with 10% FBS. All cell cultures were grown in T-75 flasks under a humidified atmosphere at 37 °C and 5% CO2 and passaged every 3 days to maintain optimal cell density (70–80% confluence).
(§3) Stock solutions used in the experiments were freshly prepared for each trial by dissolving the tested compounds in biological-grade DMSO. These stock solutions were then diluted with the culture medium appropriate for each specific cell line to achieve the desired final concentrations, which ranged from 3.125 to 100 µM. The final DMSO concentration in each well was maintained below 1%, a level generally considered non-toxic to cells. The MTT assay was employed to evaluate the antiproliferative and cytotoxic effects of the compounds on cancer cell lines, following a previously described protocol with minor modifications. Cells were seeded in 96-well plates at the following densities: 1.5 × 10^4 cells/mL (NIH/3T3), 2 × 10^4 cells/mL (T-24, Caco-2), and 3 × 10^5 cells/mL (CLB70, CLBL-1). Each plate included control wells with untreated cells and wells with vehicle controls (culture medium specific to each cell line).
(§4) After 72 h of treatment with the tested compounds, 10 µL of 3-(4,5-dimethylthiazol-2-yl)-2,5-diphenyltetrazolium bromide (MTT) solution (5 mg/mL) was added to each well. The cells were subsequently incubated with MTT for an additional 3 h to allow the formation of formazan crystals. Following this, 40 µL of lysis buffer (composed of 46 g sodium dodecyl sulfate, 150 mL dimethylformamide, and 183.2 mL Milli-Q water) was added to each well to dissolve the formazan. After a 24 h incubation at room temperature, the optical density (OD) of the resulting formazan product was measured using a spectrophotometric microplate reader (Spark, Tecan, Männedorf, Switzerland) at 570 nm.
(§5) The results were determined from three independent experiments (four wells each) and presented as mean IC50 value ± SD from at least […], each performed in quadruplicate. IC50 values (the concentration of the compound required to inhibit 50% of cell growth) were calculated from dose–response curves.
For orientation: Tetrazolium dyes change colour on reduction, which living cells bring about.

Data set [2] relates to CLBL-1 cell line (canine B-cell lymphoma). Description: MTT assay, antiproliferative activity against CLBL-1. Type of data set: cell-based. To be noted: for IC50: Canis lupus familiaris, CLBL-1, 72 h of exposure, MTT, mean ± SD; for SI CLBL-1: ratio IC50 NIH/3T3 / IC50 CLBL-1.
Excerpt: as §1, §2, §3, §4, §5

Data set [3] deals with CLB70 cell line (canine chronic B-cell lymphocytic leukemia). The experiment in a line: MTT assay, antiproliferative activity against CLB70. Type of data set: cell-based. To be noted: for IC50: Canis lupus familiaris, CLB70, 72 h of exposure, MTT, mean ± SD; for SI CLB70: ratio IC50 NIH/3T3 / IC50 CLB70.
Excerpt: as §1, §2, §3, §4, §5

The test system of data set [4] is NIH/3T3 (mouse embryonic fibroblasts). The experiment in a line: MTT assay, normal cell line NIH/3T3. Type of data set: cell-based. To be noted: NIH3T3, 72 h of exposure.
Excerpt: as §1, §2, §3, §4, §5

The test system of data set [5] is T-24 (human bladder carcinoma). Description: MTT assay, antiproliferative activity against T-24. The format is cell-based. To be noted: for antiproliferative activity against T-24 (in words): 72 h, up to 100 µM; for antiproliferative activity against T-24 (in words) / IC50: MTT; for IC50: Homo sapiens, 72 h of exposure, mean ± SD; for SI T-24: ratio IC50 NIH/3T3 / IC50 T-24.
Excerpt: as §1, §2, §3, §4, §5

A short description of data set [6]: Quantitative hemolysis assay on red blood cells. The format is cell-based. To be noted: human, pH 7.4; 72 h incubation, highest concentration (200 μM). The method, then: To evaluate the hemolytic activity and cytotoxicity of the tested compounds, a quantitative hemolysis assay was conducted using human red blood cells (RBCs), following the method described by Pruchnik et al., with minor modifications.
RBCs were obtained from healthy donors through the Blood Donation Center in Wrocław. […] The collected RBCs were gently resuspended and washed three times with cold isotonic phosphate-buffered saline (PBS, pH 7.4) to remove plasma and cellular debris.
All tested compounds were dissolved in biological-grade DMSO. A series of working solutions was prepared by diluting the stock solutions to final concentrations of 6.25, 12.50, 25, 50, 100, and 200 μM. […] Control samples contained no tested compounds, while vehicle control samples contained DMSO at the same concentration as the treated samples. Positive control samples (A100%) were prepared by inducing complete hemolysis with Milli-Q water. All experiments were performed in triplicate, with three independent replicates for each condition.
The erythrocyte suspension was adjusted to a final hematocrit of 1.2% in all test tubes, with a total sample volume of 1 mL. Samples were incubated at 37 °C under static conditions for 2, 24, and 72 h to assess both short- and long-term cytotoxic effects.
Following incubation, all samples were centrifuged at 5000 rpm for 3 min at room temperature. The supernatants were carefully transferred to a 96-well plate, and the absorbance of free hemoglobin was measured at 540 nm using a UV-Vis microplate spectrophotometer (EPOCH, BioTek, Santa Clara, CA, USA). The degree of in vitro hemolysis was calculated based on the amount of released hemoglobin relative to that in the completely hemolyzed positive control sample, according to the following formula: H[%]=As/A100%×100%, where H [%] is the percentage of erythrocyte hemolysis, As is absorbance of hemoglobin in supernatant at 540 nm, and A100% refers to the absorbance of hemoglobin in the supernatant following complete hemolysis of the erythrocytes.

Data set [7] concerns CLB-70 line. To be noted: cited from earlier work.
The test system of data set [8] is CLBL-1. To be noted: 72 h of incubation; cited from earlier work.
Data set [9] deals with Caco-2 line. Further details: method as in PMID 33198146. To be noted: 48 h of incubation; cited from earlier work.
Data set [10] has as its system T-24 cell line. Set-up: method as in earlier work. To be noted: 48 h of incubation; cited from earlier work.

Values after ≈ are worked out from the molar mass of the structure shown. Where two headings read alike, the source gives them in different places.

In the case of `COc1cc([C@@H]2CC(=O)O[C@@H]2C(C)Cl)ccc1O` (relative stereo) [12a, Cis-5-(1-Chloroethyl)-4-(4′-hydroxy-3′-methoxyphenyl)dihydrofuran-2-one], in [1], the “antiproliferative activity against CaCo-2 (in words)” value was “moderate activity”; the IC50 (as a rule, the midpoint of a concentration-inhibition curve) came out at 88.1 ± 4.4 µM; the “SI CaCo-2” value is recorded as greater than 1.1. Moreover, in data set [2], the IC50 was determined as 76.7 ± 11.5 µM and the “SI CLBL-1” value was greater than 1.3. Moreover, in data set [3], the IC50 was 75.2 ± 6.3 µM and the “SI CLB70” value was greater than 1.3. Moreover, in data set [4], the IC50 is greater than 100 µM. For the same compound, in data set [5], the “antiproliferative activity against T-24 (in words)” value is “inactive” and the IC50 was greater than 100 µM.
For `COc1cc([C@@H]2CC(=O)O[C@@H]2C(C)Br)ccc1O` (relative stereo) [11a, Cis-5-(1-Bromoethyl)-4-(4′-hydroxy-3′-methoxyphenyl)dihydrofuran-2-one], in [1], the “antiproliferative activity against CaCo-2 (in words)” value is reported as “moderate activity”; the midpoint of inhibition, the IC50, lay at 76.4 ± 10 µM; the “SI CaCo-2” value was greater than 1.3. This compound also had a hemolysis at 72 h, 200 µM in data set [6] of 10.3%. Moreover, in data set [2], the IC50 came out at 63.2 ± 1.6 µM and the “SI CLBL-1” value was greater than 1.6. For the same compound, in [3], 76.2 ± 5.3 µM corresponded to half-maximal inhibition (IC50) and the “SI CLB70” value is listed as greater than 1.3. Moreover, the IC50 in data set [4] was greater than 100 µM. Moreover, in data set [5], the “antiproliferative activity against T-24 (in words)” value was “inactive” and the half-inhibitory concentration (IC50) is greater than 100 µM.
As for `Cc1ccc(C)c([C@H]2CC(=O)O[C@@H](C)[C@@H]2Br)c1` (single isomer, unassigned), the IC50 in data set [7] (previously studied analog, reference not given, read-out: IC50 CLB70) is 106 µM.
In [1], `COc1cc([C@@H]2CC(=O)O[C@@H]2C(C)I)ccc1O` (relative stereo) [10a, Cis-4-(4′-Hydroxy-3′-methoxyphenyl)-5-(1-iodoethyl)dihydrofuran-2-one] registered an IC50 greater than 100 µM. Further, in [2], the IC50 was 73.6 ± 8.8 µM and the “SI CLBL-1” value is on record as greater than 1.4. Also, in data set [3], the IC50 came to 69.7 ± 13.7 µM and the “SI CLB70” value is listed as greater than 1.4. Further, the IC50 in data set [4] is greater than 100 µM. Besides, in [5], the “antiproliferative activity against T-24 (in words)” value is recorded as “demonstrated activity”, inhibition was half-maximal at 98.1 ± 10.4 µM (IC50) and the “SI T-24” value is greater than 1.0.
Regarding `COc1cccc2c1C(=O)c1c(O)c3c(c(O)c1C2=O)C[C@@](O)(C(=O)CO)C[C@@H]3O[C@H]1C[C@H](N)[C@H](O)[C@H](C)O1` [doxorubicin], the IC50 in [8] was less than 0.09 µM; in [10], 0.06 µM; in [7] (48 h of incubation), 0.07 µM. Besides, the “IC50 Caco-2” value in data set [9] is reported as 2.41 µg/mL (≈ 4.43 µM).
Regarding `COc1cc(C=O)ccc1O` [compound 1, Vanillin], in data set [1], the “antiproliferative activity against CaCo-2 (in words)” value was “inactive” and the IC50 was greater than 100 µM. Further, in data set [2], it took 72.4 ± 9.4 µM to reach half-maximal inhibition (IC50) and the “SI CLBL-1” value is >1.4 ^2. In addition, in [3], the IC50 came out at 72.8 ± 2.3 µM and the “SI CLB70” value is greater than 1.4. In data set [4], this compound yielded an IC50 greater than 100 µM. In data set [5], the midpoint of inhibition, the IC50, lay at 48.5 ± 13.2 µM and the “SI T-24” value is recorded as greater than 2.1.
In turn, `COc1cc([C@@H]2CC(=O)O[C@H]2C(C)I)ccc1O` (relative stereo) [10b, Trans-4-(4′-Hydroxy-3′-methoxyphenyl)-5-(1-iodoethyl)dihydrofuran-2-one] registered an IC50 in [1] greater than 100 µM. In data set [6], this compound gave a hemolysis at 72 h, 200 µM of 11%. Further, in [2], 46.3 ± 4.1 µM corresponded to half-maximal inhibition (IC50) and the “SI CLBL-1” value was greater than 2.2. Further, in [3], half-maximal inhibition (IC50) required 71.5 ± 7.5 µM and the “SI CLB70” value is on record as greater than 1.4. The same compound had an IC50 in data set [4] greater than 100 µM. For the same compound, in [5], the “antiproliferative activity against T-24 (in words)” value is recorded as “demonstrated activity”, 63.4 ± 6.2 µM corresponded to half-maximal inhibition (IC50) and the “SI T-24” value is greater than 1.6.
Take `COc1cc([C@H]2CC(=O)O[C@@H](C)[C@@H]2Cl)ccc1O` (racemic) [12b, 5-t-Chloro-4-r-(4′-Hydroxy-3′-methoxyphenyl)-6-c-methyltetrahydropyran-2-one]: in data set [1], the “antiproliferative activity against CaCo-2 (in words)” value was “moderate activity”; the midpoint of inhibition, the IC50, lay at 72.5 ± 19.8 µM; the “SI CaCo-2” value is on record as greater than 1.4. For the same compound, in data set [6], the hemolysis at 72 h, 200 µM amounted to 10.5%. Besides, in [2], half-maximal inhibition (IC50) was put at 85.7 ± 15.7 µM and the “SI CLBL-1” value is recorded as greater than 1.2. In data set [3], the IC50 amounted to 71.2 ± 11.6 µM and the “SI CLB70” value was greater than 1.4. The same compound had an IC50 in data set [4] greater than 100 µM. Moreover, in data set [5], the “antiproliferative activity against T-24 (in words)” value is “inactive” and the IC50 is greater than 100 µM.
